Assays:
[1] = system: CDK12 knockout; assay: High content phenotypic CRISPR/Cas9 screen in HUVEC cells: CDK12 knockout phenocopy; assay type: cell-based, human; details: wild-type HUVEC cells; machine vision analysis
Source text: (§1) As disclosed herein, numerous small molecules have been investigated for HRD deficient and PARP inhibitor resistant cancers and it was confirmed that E7820 is efficacious alone or in combination with PARP inhibitors in preclinical mouse cancer models. To select E7820 as a potential therapeutic for this disease, a high content phenotypic whole genome arrayed CRISPR/Cas9 screen was developed in HUVEC cells to identify cellular and structural changes associated between the genetic knockout of human genes. This high dimensional biological data set of single gene knockout phenotypes was then compared to the cellular and structural changes arising from the treatment of over 200,000 small molecules in intron-controlled wild-type HUVEC cells. […] RBM39 degraders, such as these aryl sulfonamides, may therefore be used to treat cancers where CDK12 is a suitable therapeutic target, for example, cancers where patients develop resistance to PARP inhibitors or cancers with HRD negative/HR-proficient tumors. Similar to depletion of CDK12, RBM39 degraders may be used to induce a synthetic lethality phenotype when combined with DDR inhibitors such as PARP inhibitors, thus enabling treatment of patients who would not derive benefit from treatment with the DDR inhibitor in the absence of an RBM39 degrader.

[2] = system: RNA-binding motif protein 39 (RBM39) CRISPR/Cas9 knockout; assay: High content phenotypic CRISPR/Cas9 screen in HUVEC cells: RBM39 knockout phenocopy; assay type: cell-based, human; details: wild-type HUVEC cells; machine vision analysis
Source text: as §1

[3] = system: OVCAR3 cells; assay: CellTiter-Glo cell viability assay in OVCAR3 cell line; assay type: cell-based, human; details: 72 h
Protocol: • Cell culture: OVCAR3 is a human ovarian cancer cell line that is BRCA-proficient and HRD negative. Pharmaron in China acquired this cell line for in vitro testing. OVCAR3 human ovarian tumor cells were maintained in vitro with RPMI-1640 (Glutamax)+0.01 mg/ml insulin+20% FBS+1% PS • Cell Seeding: Cells were harvested from flask into cell culture medium and counted. Cells were diluted with culture medium for below cell densities and 8000 OVCAR cells were plated per well in a 384-well plate (PerkinElmer, Cat. #6007680), using electronic multichannel pipette in 40 μL. For the low control wells, 40 μL PBS was added. […] Plates were covered with lid and spun at 1 min/1000 rpm followed by incubation overnight at 37° C., 5% CO2. • Compound Time: SR4835 and THZ531 were dissolved at 10 mM stock solution and diluted in a 3-fold, 9-point diluted series. Cells were treated with 40 nL of SR4835 and THZ531 by plate reformat Echo550 followed by incubation at 37° C. for 72 h in a CO2 incubator. For the high control, 40 nL DMSO was added. • Readout: CellTiter-Glo@ 2.0 Reagent (Promega, G9242) was removed from the fridge and equilibrated at RT(23° C.) for 60 minutes. Plates were removed from the incubator and allowed to equilibrate to room temperature, for at least 15 minutes. 30 μL CellTiter-Glo® 2.0 Reagent was added to the assay plates and allowed to sit for 30 minutes prior to reading. Luminescence signal was read on Envision. • Calculation: Cell viability (% DMSO control) was calculated using the following equation
• Cell culture: OVCAR3 is a human ovarian cancer cell line that is BRCA-proficient and HRD negative. Pharmaron in China acquired this cell line for in vitro testing. OVCAR3 human ovarian tumor cells were maintained in vitro with RPMI-1640 (Glutamax)+0.01 mg/ml insulin+20% FBS. • Cell Seeding: Cells were harvested from flask into cell culture medium and counted. Cells were diluted with culture medium for below cell densities and 8000 OVCAR cells were plated per well in a 384-well plate (PerkinElmer, Cat. #6007680), using electronic multichannel pipette in 50 μL For the low control wells, 50 μL PBS was added. […] Cells were treated with E7820 and indisulam by plate reformat Echo software and spun 1 min/1000 rpm followed by incubation at 37° C. for 72 h in a CO2 incubator. • Readout: CellTiter-Glo@ 2.0 Reagent (Promega, G9242) was removed from the fridge and equilibrated at RT (23° C.) for 60 minutes. […] 40 μL CellTiter-Glo® 2.0 Reagent was added to the assay plates, and spun 1 min/1000 rpm, then allowed to sit for 20 minutes prior to reading. Luminescence signal was read on Envision. • Calculation: Cell viability (% DMSO control) was calculated using the following equation

[4] = target: T1, CDK12+Cyclin K (Homo sapiens, UniProt Q9NYV4); assay: NanoBRET target engagement intracellular kinase assay in HEK293; assay type: cell-based; details: HEK293 cells transfected with CDK12-NanoLuc and CCNK; up to 10 μM
T1 construct: host or cells: HEK293 (transient transfection, FuGENE HD)
T1 sequence (Q9NYV4 whole entry): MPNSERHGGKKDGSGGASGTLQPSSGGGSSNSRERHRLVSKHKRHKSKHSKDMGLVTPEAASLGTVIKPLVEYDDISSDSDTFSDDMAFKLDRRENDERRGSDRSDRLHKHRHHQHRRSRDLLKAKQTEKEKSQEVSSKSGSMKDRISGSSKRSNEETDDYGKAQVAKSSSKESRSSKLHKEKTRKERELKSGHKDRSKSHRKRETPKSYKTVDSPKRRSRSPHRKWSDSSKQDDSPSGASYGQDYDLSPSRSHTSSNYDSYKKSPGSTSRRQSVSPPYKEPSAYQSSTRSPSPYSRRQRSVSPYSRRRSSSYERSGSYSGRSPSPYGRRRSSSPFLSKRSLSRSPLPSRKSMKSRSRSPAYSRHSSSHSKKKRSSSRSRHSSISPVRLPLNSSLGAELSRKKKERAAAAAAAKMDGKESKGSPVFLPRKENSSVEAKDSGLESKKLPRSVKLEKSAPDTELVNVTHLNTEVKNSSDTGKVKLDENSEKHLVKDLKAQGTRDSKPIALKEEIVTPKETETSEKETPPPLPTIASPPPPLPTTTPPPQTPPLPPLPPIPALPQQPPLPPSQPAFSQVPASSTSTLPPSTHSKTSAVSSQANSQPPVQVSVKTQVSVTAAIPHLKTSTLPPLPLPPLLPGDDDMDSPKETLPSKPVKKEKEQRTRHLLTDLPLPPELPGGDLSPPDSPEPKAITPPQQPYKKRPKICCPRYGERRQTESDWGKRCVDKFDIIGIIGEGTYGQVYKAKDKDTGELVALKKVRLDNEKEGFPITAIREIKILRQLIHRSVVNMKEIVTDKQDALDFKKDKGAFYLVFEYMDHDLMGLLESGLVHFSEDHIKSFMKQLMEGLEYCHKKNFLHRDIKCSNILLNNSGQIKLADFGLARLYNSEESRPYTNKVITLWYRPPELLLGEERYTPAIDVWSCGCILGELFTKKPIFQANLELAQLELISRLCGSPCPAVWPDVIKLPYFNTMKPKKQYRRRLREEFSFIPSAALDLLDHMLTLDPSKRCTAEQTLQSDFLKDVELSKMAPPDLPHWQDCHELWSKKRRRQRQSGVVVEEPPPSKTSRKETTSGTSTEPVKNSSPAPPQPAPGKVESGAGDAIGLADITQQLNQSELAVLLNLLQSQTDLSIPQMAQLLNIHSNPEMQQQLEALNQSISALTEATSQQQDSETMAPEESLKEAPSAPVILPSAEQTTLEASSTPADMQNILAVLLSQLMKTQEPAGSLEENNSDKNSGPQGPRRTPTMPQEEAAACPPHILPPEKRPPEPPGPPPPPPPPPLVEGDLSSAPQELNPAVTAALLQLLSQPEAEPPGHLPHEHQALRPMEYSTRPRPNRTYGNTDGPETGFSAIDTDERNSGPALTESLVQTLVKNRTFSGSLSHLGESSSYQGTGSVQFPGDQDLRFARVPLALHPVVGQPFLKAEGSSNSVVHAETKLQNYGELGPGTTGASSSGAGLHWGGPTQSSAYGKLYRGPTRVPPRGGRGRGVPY
T1 sequence (O75909 whole entry partner): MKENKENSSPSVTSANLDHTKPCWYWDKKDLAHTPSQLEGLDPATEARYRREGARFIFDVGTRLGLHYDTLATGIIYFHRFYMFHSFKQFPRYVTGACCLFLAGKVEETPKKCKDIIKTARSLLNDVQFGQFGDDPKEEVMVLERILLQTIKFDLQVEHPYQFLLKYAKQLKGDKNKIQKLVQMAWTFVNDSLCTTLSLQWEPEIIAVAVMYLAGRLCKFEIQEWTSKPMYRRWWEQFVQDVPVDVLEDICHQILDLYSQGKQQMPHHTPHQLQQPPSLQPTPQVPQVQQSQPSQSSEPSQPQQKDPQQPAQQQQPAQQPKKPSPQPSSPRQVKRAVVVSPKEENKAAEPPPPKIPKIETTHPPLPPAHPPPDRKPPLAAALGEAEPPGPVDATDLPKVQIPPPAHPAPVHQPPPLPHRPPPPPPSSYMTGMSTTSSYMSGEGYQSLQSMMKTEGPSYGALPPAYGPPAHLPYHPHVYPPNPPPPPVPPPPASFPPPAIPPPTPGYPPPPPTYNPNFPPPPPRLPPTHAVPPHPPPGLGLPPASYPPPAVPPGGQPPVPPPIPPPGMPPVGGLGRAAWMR
Protocol: • Cell culture: CDK12 NanoBRET assay kit was obtained from Reaction Biology with experiment performed by Pharmaron. HEK293 cells were cultured using 90% DMEM with 10% FBS. Cells were cultivated in T-75 flasks in a cell culture incubator set at 37° C., 5% CO^2, 95% relative humidity. Once cells reached 80-90% confluence, they were detached and split. Cultivated cells in T-75 flasks were rinsed with 5 mL PB and aspirated off. 1.5 mL trypsin was added and incubated at 37° C. for approximately 5 minutes or until the cells detached and started to float. Trypsin was inactivated by adding excess serum containing medium. • Transient Transfection of HEK293 Cells: Cell culture medium was removed from cell flask by aspiration and trypsinized, allowing cells to dissociate from flask. Trypsin was neutralized using cell culture medium and centrifuged at 200×g for 5 minutes to pellet cells. Medium was aspirated and resuspended in assay medium consisting of 99% Opti-MEM, reduced serum medium with no phenol red and 1% FBS. Density was adjusted to 2×10^5 cells/ml using assay medium. 10 μg/ml solution of DNA in Opti-MEM was prepared consisting of 9 μg/mL of CCNK, 1 ug/mL of Kinase-NanoLuc fusion vector DNA CDK12, and 1 mL of Opti-MEM. This solution was mixed thoroughly. 30 μl of FuGENE HD Transfection Reagent was added into each milliliter of DNA mixture to form lipid: DNA complex. Mixture was inverted 5-10 times and incubated at ambient temperature for 20 minutes to allow complexes to form. In a sterile, conical tub, 1 part of lipid DNA complex (1 mL) was mixed with 20 parts of HEK293 cells (20 mL) in suspension at 2×10^5 cells/mL. Tube was mixed gently by inversion 5 times. […] Lastly, 20 μL of this 3× complete substrate plus inhibitor solution was added to each well of the 384-well plate and incubated for 2-3 minutes at room temperature and read the plate on the Envision. • Calculation: BRET Ratio was calculated as follows: […]

Compound | phenocopy of CDK12 knockout (cellular and structural changes) [1] | phenocopy of RBM39 CRISPR/Cas9 knockout [2] | cell viability [3] | CDK12 kinase activity [4]
Nc1ccc(S(=O)(=O)Nc2cnc3c(Cl)cccc3n2)cc1 [CQS] | phenocopy CDK12 loss | phenocopy RNA-binding motif protein 39 (RBM39) CRISPR/Cas9 knockout |  | 
Cn1cc(-n2cnc3c(NCc4nc5cc(Cl)c(Cl)cc5[nH]4)nc(N4CCOCC4)nc32)cn1 [SR4835] |  |  | dose-dependent decreases in cell viability | 
CN(C)C/C=C/C(=O)Nc1ccc(C(=O)N2CCC[C@@H](Nc3ncc(Cl)c(-c4c[nH]c5ccccc45)n3)C2)cc1 [THZ531] |  |  | dose-dependent decreases in cell viability | dose-dependent inhibition of kinase function
NS(=O)(=O)c1ccc(S(=O)(=O)Nc2cccc3c(Cl)c[nH]c23)cc1 [indisulam] | phenocopy CDK12 loss | phenocopy RNA-binding motif protein 39 (RBM39) CRISPR/Cas9 knockout | minimal effect on cell viability | does not affect CDK12 kinase activity
O=C(NS(=O)(=O)c1ccc(Br)s1)c1ccc(Cl)cc1Cl [tasisulam] | phenocopy CDK12 loss | phenocopy RNA-binding motif protein 39 (RBM39) CRISPR/Cas9 knockout |  | 

— patent publication US20260183262A1, “RNA-BINDING MOTIF PROTEIN 39 (RBM39) DEGRADERS FOR TREATMENT OF CANCERS” (RECURSION PHARMACEUTICALS, INC., priority 2022, published 2026)
